# Measured values published in PMC10879502, “Linking ATP and allosteric sites to achieve superadditive binding with bivalent EGFR kinase inhibitors” (Communications Chemistry, 2024).
# Experiments:
# Format in all cases: binding
# Conditions in all cases: 1 μM
# DRAK1 = biological target: T1, DRAK1 (Homo sapiens, UniProt Q9UEE5); assay: KINOMEscan
# T1 construct: purchased Eurofins DiscoverX Corporation
# PLK3 = PLK3 (Homo sapiens, UniProt Q9H4B4); assay: KINOMEscan
# PKAC-beta = PKAC-beta (Homo sapiens, UniProt P22694); assay: KINOMEscan
# CTK = biological target: T2, CTK (Homo sapiens, UniProt P42679); assay: KINOMEscan
# T2 construct: purchased Eurofins DiscoverX Corporation
# [1] = biological target: T3, ABL1(Q252H)-nonphosphorylated (Homo sapiens, UniProt P00519, Q252H); assay: KINOMEscan
# T3 construct: purchased Eurofins DiscoverX Corporation
# [2] = biological target: T4, JAK3(JH1domain-catalytic) (Homo sapiens, UniProt P52333); assay: KINOMEscan
# T4 construct: JAK3(JH1domain-catalytic); purchased Eurofins DiscoverX (KINOMEscan)
# 468 kinases = assay: KINOMEscan selectivity score
# KIT(D816H) = biological target: T5, KIT(D816H) (Homo sapiens, UniProt P10721, D816H); assay: KINOMEscan
# T5 construct: purchased Eurofins DiscoverX (KINOMEscan)
# RIPK4 = RIPK4 (Homo sapiens, UniProt P57078); assay: KINOMEscan
# AAK1 = biological target: T6, AAK1 (Homo sapiens, UniProt Q2M2I8); assay: KINOMEscan
# T6 construct: purchased Eurofins DiscoverX Corporation
# MARK3 = biological target: T7, MARK3 (Homo sapiens, UniProt P27448); assay: KINOMEscan
# T7 construct: purchased Eurofins DiscoverX Corporation
# LIMK2 = biological target: T8, LIMK2 (Homo sapiens, UniProt P53671); assay: KINOMEscan
# T8 construct: purchased Eurofins DiscoverX Corporation
# LKB1 = biological target: T9, LKB1 (Homo sapiens, UniProt Q15831); assay: KINOMEscan
# T9 construct: purchased Eurofins DiscoverX Corporation
# KIT(L576P) = biological target: T10, KIT(L576P) (Homo sapiens, UniProt P10721, L576P); assay: KINOMEscan
# T10 construct: purchased Eurofins DiscoverX (KINOMEscan)
# JNK3 = biological target: T11, JNK3 (Homo sapiens, UniProt P53779); assay: KINOMEscan
# T11 construct: purchased Eurofins DiscoverX (KINOMEscan)
# LCK = biological target: T12, LCK (Homo sapiens, UniProt P06239); assay: KINOMEscan
# T12 construct: purchased Eurofins DiscoverX Corporation
# PRKCD = PRKCD (Homo sapiens, UniProt Q05655); assay: KINOMEscan
# PAK6 = PAK6 (Homo sapiens, UniProt Q9NQU5); assay: KINOMEscan
# CLK2 = CLK2 (Homo sapiens, UniProt P49760); assay: KINOMEscan
# PIK3CA(E545K) = PIK3CA(E545K) (Homo sapiens, UniProt P42336, E545K); assay: KINOMEscan
# BRSK2 = biological target: T13, BRSK2 (Homo sapiens, UniProt Q8IWQ3); assay: KINOMEscan
# T13 construct: purchased Eurofins DiscoverX Corporation (KINOMEscan)
# [3] = biological target: RSK1(Kin.Dom.1-N-terminal) (Homo sapiens, UniProt Q15418); assay: KINOMEscan
# PCTK3 = PCTK3 (Homo sapiens, UniProt Q07002); assay: KINOMEscan
# ERBB2 = ERBB2 (Homo sapiens, UniProt P04626); assay: KINOMEscan
# EPHA5 = EPHA5 (Homo sapiens, UniProt P54756); assay: KINOMEscan
# FGFR2 = FGFR2 (Homo sapiens, UniProt P21802); assay: KINOMEscan
# NEK1 = biological target: T14, NEK1 (Homo sapiens, UniProt Q96PY6); assay: KINOMEscan
# T14 construct: purchased Eurofins DiscoverX Corporation
# FLT4 = biological target: T15, FLT4 (Homo sapiens, UniProt P35916); assay: KINOMEscan
# T15 construct: purchased Eurofins DiscoverX Corporation
# PAK4 = PAK4 (Homo sapiens, UniProt O96013); assay: KINOMEscan
# PIKFYVE = PIKFYVE (Homo sapiens, UniProt Q9Y2I7); assay: KINOMEscan
# ROCK1 = ROCK1 (Homo sapiens, UniProt Q13464); assay: KINOMEscan
# ZAP70 = ZAP70 (Homo sapiens, UniProt P43403); assay: KINOMEscan
# ULK1 = ULK1 (Homo sapiens, UniProt O75385); assay: KINOMEscan
# NEK2 = biological target: T16, NEK2 (Homo sapiens, UniProt P51955); assay: KINOMEscan
# T16 construct: purchased Eurofins DiscoverX Corporation
# CAMK1D = biological target: T17, CAMK1D (Homo sapiens, UniProt Q8IU85); assay: KINOMEscan
# T17 construct: purchased Eurofins DiscoverX Corporation (KINOMEscan)
# EPHB3 = EPHB3 (Homo sapiens, UniProt P54753); assay: KINOMEscan
# NEK10 = biological target: T18, NEK10 (Homo sapiens, UniProt Q6ZWH5); assay: KINOMEscan
# T18 construct: purchased Eurofins DiscoverX Corporation
# MST4 = biological target: T19, MST4 (Homo sapiens, UniProt Q9P289); assay: KINOMEscan
# T19 construct: purchased Eurofins DiscoverX Corporation
# ALK(C1156Y) = ALK(C1156Y) (Homo sapiens, UniProt Q9UM73, C1156Y); assay: KINOMEscan
# [4] = biological target: RPS6KA5(Kin.Dom.2-C-terminal) (Homo sapiens, UniProt O75582); assay: KINOMEscan
# CAMK2D = biological target: T20, CAMK2D (Homo sapiens, UniProt Q13557); assay: KINOMEscan
# T20 construct: purchased Eurofins DiscoverX Corporation (KINOMEscan)
# PIK4CB = PIK4CB (Homo sapiens, UniProt Q9UBF8); assay: KINOMEscan
# T8 sequence (P53671 whole entry): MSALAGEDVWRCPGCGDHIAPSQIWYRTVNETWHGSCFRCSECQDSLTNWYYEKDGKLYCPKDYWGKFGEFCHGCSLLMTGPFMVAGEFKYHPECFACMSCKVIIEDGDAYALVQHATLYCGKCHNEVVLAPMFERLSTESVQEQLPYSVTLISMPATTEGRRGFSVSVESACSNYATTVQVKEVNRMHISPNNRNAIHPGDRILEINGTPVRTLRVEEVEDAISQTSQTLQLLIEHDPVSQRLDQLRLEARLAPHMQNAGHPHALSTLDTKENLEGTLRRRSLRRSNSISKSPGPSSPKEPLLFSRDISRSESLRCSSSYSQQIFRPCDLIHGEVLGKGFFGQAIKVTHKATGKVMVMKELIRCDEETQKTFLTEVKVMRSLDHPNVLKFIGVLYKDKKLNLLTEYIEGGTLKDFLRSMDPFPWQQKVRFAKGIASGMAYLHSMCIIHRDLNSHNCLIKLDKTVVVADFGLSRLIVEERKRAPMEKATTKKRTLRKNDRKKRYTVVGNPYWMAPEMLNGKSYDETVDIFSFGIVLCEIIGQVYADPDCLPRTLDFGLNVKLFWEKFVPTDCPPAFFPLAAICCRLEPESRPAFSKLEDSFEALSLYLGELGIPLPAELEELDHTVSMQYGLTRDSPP
# Sequence of CLK2 (P49760 whole entry): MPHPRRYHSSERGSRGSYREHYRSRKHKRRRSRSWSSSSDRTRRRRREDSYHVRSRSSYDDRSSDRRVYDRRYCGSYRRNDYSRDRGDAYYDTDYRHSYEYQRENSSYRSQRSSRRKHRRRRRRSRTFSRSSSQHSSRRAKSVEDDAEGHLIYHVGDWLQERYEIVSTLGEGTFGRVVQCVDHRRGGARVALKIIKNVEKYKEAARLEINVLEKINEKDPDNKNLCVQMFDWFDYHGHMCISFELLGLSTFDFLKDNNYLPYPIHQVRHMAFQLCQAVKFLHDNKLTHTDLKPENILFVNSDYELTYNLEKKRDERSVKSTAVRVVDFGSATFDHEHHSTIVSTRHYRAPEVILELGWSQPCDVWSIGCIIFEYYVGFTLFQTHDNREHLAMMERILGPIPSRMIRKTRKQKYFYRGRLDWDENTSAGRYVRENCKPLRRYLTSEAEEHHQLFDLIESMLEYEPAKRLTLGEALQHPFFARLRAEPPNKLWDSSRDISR
# T17 sequence (Q8IU85 whole entry): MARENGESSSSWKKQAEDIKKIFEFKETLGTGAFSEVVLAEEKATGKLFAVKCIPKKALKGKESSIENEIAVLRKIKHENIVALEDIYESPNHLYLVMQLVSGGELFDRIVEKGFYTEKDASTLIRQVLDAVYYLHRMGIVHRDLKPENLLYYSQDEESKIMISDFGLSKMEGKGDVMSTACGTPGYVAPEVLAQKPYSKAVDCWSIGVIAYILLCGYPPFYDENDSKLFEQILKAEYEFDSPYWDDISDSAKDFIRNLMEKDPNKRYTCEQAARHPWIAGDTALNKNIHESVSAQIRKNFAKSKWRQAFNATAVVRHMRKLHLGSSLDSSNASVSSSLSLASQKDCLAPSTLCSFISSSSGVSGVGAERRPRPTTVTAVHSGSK
# Sequence of PLK3 (Q9H4B4 whole entry): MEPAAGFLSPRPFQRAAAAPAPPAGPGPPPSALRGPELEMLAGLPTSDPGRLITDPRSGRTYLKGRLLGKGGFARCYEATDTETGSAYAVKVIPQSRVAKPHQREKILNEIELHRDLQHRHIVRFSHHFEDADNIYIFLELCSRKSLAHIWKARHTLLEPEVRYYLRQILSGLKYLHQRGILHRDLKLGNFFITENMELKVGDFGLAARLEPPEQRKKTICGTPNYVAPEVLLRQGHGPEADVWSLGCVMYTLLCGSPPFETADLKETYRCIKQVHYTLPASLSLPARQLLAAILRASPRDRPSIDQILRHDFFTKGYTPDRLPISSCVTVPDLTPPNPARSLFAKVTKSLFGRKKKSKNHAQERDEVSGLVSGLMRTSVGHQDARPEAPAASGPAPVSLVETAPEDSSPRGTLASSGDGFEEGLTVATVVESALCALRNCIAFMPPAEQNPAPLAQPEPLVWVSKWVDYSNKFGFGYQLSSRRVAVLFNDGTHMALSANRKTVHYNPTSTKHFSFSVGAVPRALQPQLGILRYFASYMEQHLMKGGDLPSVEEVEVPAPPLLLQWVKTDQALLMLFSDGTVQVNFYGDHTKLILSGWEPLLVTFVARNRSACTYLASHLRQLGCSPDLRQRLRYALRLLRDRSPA
# Sequence of ALK(C1156Y) (Q9UM73 19-1620 C1156Y): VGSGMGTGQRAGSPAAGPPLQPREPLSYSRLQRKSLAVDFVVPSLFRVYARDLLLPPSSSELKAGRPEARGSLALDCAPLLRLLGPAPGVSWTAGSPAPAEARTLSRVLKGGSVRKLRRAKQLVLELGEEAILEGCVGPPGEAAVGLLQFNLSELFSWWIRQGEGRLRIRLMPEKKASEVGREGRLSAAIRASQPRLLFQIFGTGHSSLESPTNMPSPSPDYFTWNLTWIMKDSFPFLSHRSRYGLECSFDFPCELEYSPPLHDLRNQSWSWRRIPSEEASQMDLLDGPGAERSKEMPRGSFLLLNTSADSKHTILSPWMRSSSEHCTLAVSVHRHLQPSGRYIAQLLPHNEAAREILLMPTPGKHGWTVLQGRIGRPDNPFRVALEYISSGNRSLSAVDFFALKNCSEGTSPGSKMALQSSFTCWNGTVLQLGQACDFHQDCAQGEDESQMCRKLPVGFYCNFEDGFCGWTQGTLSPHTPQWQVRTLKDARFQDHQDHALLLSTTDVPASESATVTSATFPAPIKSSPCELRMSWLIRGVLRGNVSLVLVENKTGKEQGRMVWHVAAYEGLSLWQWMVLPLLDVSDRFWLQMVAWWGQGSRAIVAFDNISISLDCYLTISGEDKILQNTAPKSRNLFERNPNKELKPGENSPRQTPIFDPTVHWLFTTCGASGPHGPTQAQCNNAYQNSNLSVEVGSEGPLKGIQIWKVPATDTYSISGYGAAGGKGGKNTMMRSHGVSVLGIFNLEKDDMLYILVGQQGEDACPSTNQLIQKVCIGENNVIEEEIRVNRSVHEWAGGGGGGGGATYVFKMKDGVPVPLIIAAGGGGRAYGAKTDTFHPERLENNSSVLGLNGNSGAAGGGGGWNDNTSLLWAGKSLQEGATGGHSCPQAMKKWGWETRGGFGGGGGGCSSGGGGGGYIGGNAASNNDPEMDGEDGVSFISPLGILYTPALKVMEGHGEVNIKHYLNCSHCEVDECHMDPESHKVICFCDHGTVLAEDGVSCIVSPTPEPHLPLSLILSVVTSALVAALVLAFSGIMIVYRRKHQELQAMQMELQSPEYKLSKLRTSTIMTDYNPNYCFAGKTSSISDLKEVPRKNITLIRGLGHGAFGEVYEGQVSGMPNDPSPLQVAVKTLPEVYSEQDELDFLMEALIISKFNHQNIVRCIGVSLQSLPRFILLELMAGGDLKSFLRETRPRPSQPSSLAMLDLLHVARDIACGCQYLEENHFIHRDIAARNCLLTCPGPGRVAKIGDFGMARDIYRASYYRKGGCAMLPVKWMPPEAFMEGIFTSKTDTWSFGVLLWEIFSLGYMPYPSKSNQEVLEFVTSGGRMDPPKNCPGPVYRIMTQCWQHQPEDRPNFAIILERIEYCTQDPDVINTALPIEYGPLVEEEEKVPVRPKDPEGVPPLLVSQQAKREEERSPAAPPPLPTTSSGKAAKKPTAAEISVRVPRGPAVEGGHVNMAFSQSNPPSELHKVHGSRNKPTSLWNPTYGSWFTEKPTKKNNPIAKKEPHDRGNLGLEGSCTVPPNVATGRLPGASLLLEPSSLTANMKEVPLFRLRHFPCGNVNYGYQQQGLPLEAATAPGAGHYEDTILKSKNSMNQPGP
# Sequence of PAK6 (Q9NQU5 whole entry): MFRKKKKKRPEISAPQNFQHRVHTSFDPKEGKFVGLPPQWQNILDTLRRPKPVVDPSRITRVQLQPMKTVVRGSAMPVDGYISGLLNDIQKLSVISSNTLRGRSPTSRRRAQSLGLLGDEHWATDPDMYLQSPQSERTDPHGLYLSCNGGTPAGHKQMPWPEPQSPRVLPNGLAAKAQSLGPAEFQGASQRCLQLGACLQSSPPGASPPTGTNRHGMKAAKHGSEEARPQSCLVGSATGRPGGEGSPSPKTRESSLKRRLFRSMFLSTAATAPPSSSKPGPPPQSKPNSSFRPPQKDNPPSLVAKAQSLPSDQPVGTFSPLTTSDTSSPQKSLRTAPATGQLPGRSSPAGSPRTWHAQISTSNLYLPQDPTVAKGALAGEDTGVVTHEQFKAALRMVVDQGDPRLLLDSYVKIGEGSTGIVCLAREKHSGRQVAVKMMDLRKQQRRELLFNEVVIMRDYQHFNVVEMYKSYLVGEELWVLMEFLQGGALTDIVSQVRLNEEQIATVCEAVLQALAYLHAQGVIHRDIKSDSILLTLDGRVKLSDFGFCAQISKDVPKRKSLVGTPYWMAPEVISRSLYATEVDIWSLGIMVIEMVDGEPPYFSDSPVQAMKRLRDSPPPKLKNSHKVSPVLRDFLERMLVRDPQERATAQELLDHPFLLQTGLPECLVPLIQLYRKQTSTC
# Sequence of PCTK3 (Q07002 whole entry): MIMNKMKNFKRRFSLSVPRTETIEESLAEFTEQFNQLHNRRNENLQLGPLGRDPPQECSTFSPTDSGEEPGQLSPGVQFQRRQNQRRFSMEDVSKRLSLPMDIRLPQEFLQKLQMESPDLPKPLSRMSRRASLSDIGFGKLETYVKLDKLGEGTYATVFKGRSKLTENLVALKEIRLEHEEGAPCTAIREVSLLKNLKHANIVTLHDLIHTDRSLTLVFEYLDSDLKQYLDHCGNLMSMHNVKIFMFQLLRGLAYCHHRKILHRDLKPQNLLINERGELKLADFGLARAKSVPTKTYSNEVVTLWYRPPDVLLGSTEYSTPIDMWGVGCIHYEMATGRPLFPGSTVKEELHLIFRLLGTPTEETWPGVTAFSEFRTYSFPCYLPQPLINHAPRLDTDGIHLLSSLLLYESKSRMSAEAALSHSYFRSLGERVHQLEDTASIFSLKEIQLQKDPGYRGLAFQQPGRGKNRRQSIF
structure (smiles),measurement,setting,value
C=CC(=O)Nc1ccc(OC)c(Nc2cc(-c3[nH]c(CC)nc3-c3cccc(NC(=O)c4cccc5c4NC(=O)c4ccccc4N5)c3)ccn2)c1 [Compound 4],POC,DRAK1,84% of control
same,POC,PLK3,87% of control
same,POC,PKAC-beta,98% of control
same,POC,CTK,54% of control
same,POC,[1],100% of control
same,POC,[2],100% of control
same,selectivity score S(35),468 kinases,0.084
same,POC,KIT(D816H),39% of control
same,POC,RIPK4,100% of control
same,POC,AAK1,100% of control
same,POC,MARK3,100% of control
same,POC,LIMK2,93% of control
same,POC,LKB1,100% of control
same,POC,KIT(L576P),84% of control
same,POC,JNK3,53% of control
same,POC,LCK,7.7% of control
same,POC,PRKCD,55% of control
same,POC,PAK6,93% of control
same,POC,CLK2,63% of control
same,POC,PIK3CA(E545K),100% of control
same,POC,BRSK2,93% of control
same,POC,[3],4.7% of control
same,POC,PCTK3,93% of control
same,POC,ERBB2,18% of control
same,POC,EPHA5,100% of control
same,POC,FGFR2,100% of control
same,POC,NEK1,90% of control
same,POC,FLT4,100% of control
same,POC,PAK4,89% of control
same,POC,PIKFYVE,94% of control
same,POC,ROCK1,100% of control
same,POC,ZAP70,97% of control
same,POC,ULK1,100% of control
same,POC,NEK2,98% of control
same,POC,CAMK1D,100% of control
same,POC,EPHB3,100% of control
same,POC,NEK10,86% of control
same,POC,MST4,94% of control
same,POC,ALK(C1156Y),87% of control
same,POC,[4],100% of control
same,POC,CAMK2D,88% of control
same,POC,PIK4CB,93% of control
